In patent US20250197384A1, “AZOLE COMPOUND AND ANTIFUNGAL AGENT” (NIHON NOHYAKU CO., LTD., priority 2022, published 2025):
In brackets after ≈: the same amount, converted by molar mass.

Assays:
Assay type in all cases: cell-based
[1] = test system: Trichophyton rubrum NBRC6203; experiment: In vitro anti-tinea fungus activity test (T. rubrum); details: Table 22, 27° C. for 5 days, alamar Blue, minimum concentration showing 80% or more inhibition; for MIC: Trichophyton rubrum, 120 h, read-out: minimum inhibitory concentration against various fungi (MIC) T. rubrum
Method: (§1) Trichophyton rubrum NBRC6203 and Trichophyton mentagrophytes TIMM2789 were used as the strains. The test fungi were cultured on a Sabouraud dextrose agar slant medium at 27° C. for 10-13 days, and then suspended in sterilized saline. The number of cells in this suspension was counted using a hemocytometer, and the same suspension was adjusted to a cell concentration of 2×10^6 conidia/mL, and this was used as an inoculum. Each compound was dissolved in dimethyl sulfoxide to a predetermined concentration, and diluted 50-fold with 0.165 M MOPS buffered RPMI 1640 liquid medium, and each diluted solution was dispensed into a 96-well microplate by each 100 μL. The inoculum was diluted 50-fold with 0.165 M MOPS buffered RPMI 1640 liquid medium containing 20% alamar Blue™, and the diluted solution was inoculated into the 96-well microplate containing the compound by each 100 μL (final inoculum amount 2×10^4 conidia/mL). After static culture at 27° C. for 3 days (Trichophyton mentagrophytes) or for 5 days (Trichophyton rubrum), the degree of color development of the alamar Blue™ was measured using a microplate reader (O.D. 570-595 nm), and the minimum concentration showing 80% or more inhibition was defined as the minimum inhibitory concentration (MIC).

[2] = test system: Aspergillus fumigatus TIMM0063; experiment: In vitro anti-Aspergillus activity test; details: Table 22, 35° C. for 48 hr, alamar Blue, minimum concentration showing 80% or more inhibition; for MIC: Aspergillus fumigatus, read-out: minimum inhibitory concentration against various fungi (MIC) A. fumigatus
Method: Aspergillus fumigatus TIMM0063 was used as the strain. The test fungi were cultured on a Potato dextrose agar slant medium at 35° C. for 4 days, and then sterilized saline containing 0.1% (v/v) Tween 80 was added to release the conidia. This conidial suspension was filtered through sterile gauze, and the number of conidia was counted using a hemocytometer. The same solution was adjusted to a conidial concentration of 1×10^6 conidia/mL, and this was used as an inoculum. Each compound was dissolved in dimethyl sulfoxide to a predetermined concentration, and diluted 50-fold with 0.165 M MOPS buffered RPMI 1640 liquid medium, and each diluted solution was dispensed into a 96-well microplate by each 100 μL. The inoculum was diluted 50-fold with 0.165 M MOPS buffered RPMI 1640 liquid medium containing 20% alamar Blue™, and the diluted solution was inoculated into the 96-well microplate containing the compound by each 100 μL (final inoculum amount 1.0×10^4 conidia/mL). After static culture at 35° C. for 48 hr, the degree of color development of the alamar Blue™ was measured using a microplate reader (O.D. 570-595 nm), and the minimum concentration showing 80% or more inhibition was defined as the minimum inhibitory concentration (MIC).

[3] = test system: Candida albicans NBRC1270; experiment: In vitro anti-Candida activity test; details: Table 22, 35° C. for 24 hr, alamar Blue, minimum concentration showing 80% or more inhibition; for MIC: Candida albicans, read-out: minimum inhibitory concentration against various fungi (MIC) C. albicans
Method: Candida albicans NBRC1270 was used as the strain. The test fungi were cultured on a Sabouraud dextrose agar slant medium at 35° C. for 24 hr, and then suspended in sterilized saline. The number of cells in this suspension was counted using a hemocytometer, and the same suspension was adjusted to a cell concentration of 1.5×10^5 cells/mL, and this was used as an inoculum. Each compound was dissolved in dimethyl sulfoxide to a predetermined concentration, and diluted 50-fold with 0.165 M MOPS buffered RPMI 1640 liquid medium, and each diluted solution was dispensed into a 96-well microplate by each 100 μL. The inoculum was diluted 50-fold with 0.165 M MOPS buffered RPMI 1640 liquid medium containing 20% alamar Blue™, and the diluted solution was inoculated into the 96-well microplate containing the compound by each 100 μL (final inoculum amount 1.5×10^3 cells/mL). After static culture at 35° C. for 24 hr, the degree of color development of the alamar Blue™ was measured using a microplate reader (O.D. 570-595 nm), and the minimum concentration showing 80% or more inhibition was defined as the minimum inhibitory concentration (MIC).

[4] = test system: Trichophyton mentagrophytes TIMM2789; experiment: In vitro anti-tinea fungus activity test (T. mentagrophytes); details: Table 22, 27° C. for 3 days, alamar Blue, minimum concentration showing 80% or more inhibition; for MIC: Trichophyton mentagrophytes, 72 h, read-out: minimum inhibitory concentration against various fungi (MIC) T. mentagrophytes
Method: as §1

Compound	minimum inhibitory concentration against various fungi (MIC) T. rubrum [1]	minimum inhibitory concentration against various fungi (MIC) A. fumigatus [2]	minimum inhibitory concentration against various fungi (MIC) C. albicans [3]	minimum inhibitory concentration against various fungi (MIC) T. mentagrophytes [4]	MIC [1]	MIC [2]	MIC [3]	MIC [4]
CCCC1CC(c2cnc(C3CS/C(=C(/C#N)n4ccnc4)S3)c(Cl)c2)=NO1 (centres unmarked) [Compound No. 6, (E)-2-{4-[3-chloro-5-(5-propyl-4,5-dihydroisoxazol-3-yl)pyridin-2-yl]-1,3-dithiolan-2-ylidene}-2-(1H-imidazol-1-yl)acetonitrile]					0.01 µg/mL (≈ 0.0231 µM)	0.005 µg/mL (≈ 0.0116 µM)	0.01 µg/mL (≈ 0.0231 µM)	0.01 µg/mL (≈ 0.0231 µM)
CCOC(=O)Nc1cnc(C2CS/C(=C(/C#N)n3cncn3)S2)c(F)c1 (centres unmarked) [Compound No. 10, ethyl (E)-(6-{2-[cyano(1H-1,2,4-triazol-1-yl)methylene]-1,3-dithiolan-4-yl}-5-fluoropyridin-3-yl)carbamate]					0.01 µg/mL (≈ 0.0255 µM)	0.025 µg/mL (≈ 0.0637 µM)	0.05 µg/mL (≈ 0.127 µM)	0.01 µg/mL (≈ 0.0255 µM)
COC(=O)Nc1cnc(C2CS/C(=C(/C#N)n3ccnc3)S2)c(Cl)c1 (centres unmarked) [Compound No. 15, methyl (E)-(5-chloro-6-{2-[cyano(1H-imidazol-1-yl)methylene]-1,3-dithiolan-4-yl}pyridin-3-yl)carbamate]					0.01 µg/mL (≈ 0.0254 µM)	0.005 µg/mL (≈ 0.0127 µM)	0.0025 µg/mL (≈ 0.00635 µM)	0.01 µg/mL (≈ 0.0254 µM)
CCO/N=C/c1cnc(C2CS/C(=C(/C#N)n3ccnc3)S2)c(Cl)c1 (centres unmarked) [Compound No. 25, (E)-2-(4-{3-chloro-5-[(E)-(ethoxyimino)methyl]pyridin-2-yl}-1,3-dithiolan-2-ylidene)-2-(1H-imidazol-1-yl)acetonitrile]					≤ 0.001 µg/mL	0.0025 µg/mL (≈ 0.00638 µM)	0.0006 µg/mL (≈ 0.00153 µM)	≤ 0.001 µg/mL
N#CCOc1cnc(C2CS/C(=C(/C#N)n3ccnc3)S2)c(Cl)c1 (centres unmarked) [compound 4]	0.01 µg/mL (≈ 0.0266 µM)	0.005 µg/mL (≈ 0.0133 µM)	1 µg/mL (≈ 2.66 µM)	0.01 µg/mL (≈ 0.0266 µM)				
COC(=O)Nc1cnc(C2CS/C(=C(/C#N)n3cncn3)S2)c(Cl)c1 (centres unmarked) [compound 7]	≤0.001 µg/mL	0.005 µg/mL (≈ 0.0127 µM)	0.01 µg/mL (≈ 0.0253 µM)	0.01 µg/mL (≈ 0.0253 µM)				
CCOC(=O)Nc1cnc(C2CS/C(=C(/C#N)n3cncn3)S2)c(Cl)c1 (centres unmarked) [compound 11]	≤0.001 µg/mL	0.005 µg/mL (≈ 0.0122 µM)	0.01 µg/mL (≈ 0.0245 µM)	0.01 µg/mL (≈ 0.0245 µM)				

More lines, now with the values ahead:

minimum inhibitory concentration against various fungi (MIC) T. rubrum [1]	minimum inhibitory concentration against various fungi (MIC) A. fumigatus [2]	minimum inhibitory concentration against various fungi (MIC) C. albicans [3]	minimum inhibitory concentration against various fungi (MIC) T. mentagrophytes [4]	MIC [1]	MIC [2]	MIC [3]	MIC [4]	Compound
≤0.001 µg/mL	0.0013 µg/mL (≈ 0.00325 µM)	0.1 µg/mL (≈ 0.25 µM)	≤0.001 µg/mL					N#C/C(=C1/SCC(c2ncc(Br)cc2Cl)S1)n1ccnc1 (racemic) [Compound No. 1]
0.01 µg/mL (≈ 0.0298 µM)	0.01 µg/mL (≈ 0.0298 µM)	1 µg/mL (≈ 2.98 µM)	0.01 µg/mL (≈ 0.0298 µM)					N#C/C(=C1/SCC(c2ncc(N)cc2Cl)S1)n1ccnc1 (racemic) [Compound No. 2]
				≤ 0.001 µg/mL	0.005 µg/mL (≈ 0.0107 µM)	0.0013 µg/mL (≈ 0.00277 µM)	≤ 0.001 µg/mL	N#C/C(=C1/SCC(c2ncc(/C(N)=N/OCc3ccccc3)cc2Cl)S1)n1ccnc1 (centres unmarked) [Compound No. 27, (Z)—N′-(benzyloxy)-5-chloro-6-{(E)-2-[cyano(1H-imidazol-1-yl)methylene]-1,3-dithiolan-4-yl}nicotinimidamide]
≤0.001 µg/mL	0.0025 µg/mL (≈ 0.00721 µM)	0.1 µg/mL (≈ 0.288 µM)	≤0.001 µg/mL					C=Cc1cnc(C2CS/C(=C(/C#N)n3ccnc3)S2)c(Cl)c1 (centres unmarked) [compound 3]
